Reference: patent US9663511B2, “Sphingosine 1-phosphate receptor antagonists” (ARROYO BIOSCIENCES, LLC, priority 2012, dated 2017)
Several values for one entry are separate records, joined by “and”; a condition that tells them apart may be missing. Identical values can stand only once. Like-named read-outs stand apart in the source and are kept apart here. Marks after values point to notes of the source that are not given here.

Experiments:
S1P2 receptor = S1P2 receptor (Homo sapiens (Human), UniProt O95136); assay: Antagonist assay (FLIPR TETRA, inhibition of reference agonist EC80) on S1P2; type: cell-based; settings: tested as the citrate salt
Sequence of S1P2 receptor (O95136 whole entry): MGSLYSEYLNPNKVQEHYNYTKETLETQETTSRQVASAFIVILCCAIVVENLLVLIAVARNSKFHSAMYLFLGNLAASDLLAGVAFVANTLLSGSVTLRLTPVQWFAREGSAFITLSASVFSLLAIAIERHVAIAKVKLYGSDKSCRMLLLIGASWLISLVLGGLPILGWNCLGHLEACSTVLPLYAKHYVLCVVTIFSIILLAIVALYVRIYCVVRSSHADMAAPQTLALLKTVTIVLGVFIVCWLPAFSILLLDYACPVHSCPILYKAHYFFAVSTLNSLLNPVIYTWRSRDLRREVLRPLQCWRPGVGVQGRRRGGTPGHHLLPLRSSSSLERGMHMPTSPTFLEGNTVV
Procedure: (§1) Antagonist percentage inhibition determinations were obtained by assaying sample compounds and referencing the control (EC80) wells for each profiled (GPCR) which evaluated binding to S1P2 and S1P5 receptors. The samples were run using a single addition assay protocol. The protocol design is as follows.
(§2) Unless specified otherwise, the sample compounds were diluted in 100% anhydrous DMSO including all dilutions. The compounds were tested as the citrate salt (1 equivalent per molecule). If the sample compound is provided in a different solvent all master stock dilutions are performed in the specified solvent. All control wells contained identical solvent final concentrations as the sample compound wells.
(§3) The sample compounds were transferred from a master stock solution into a daughter plate that was used in the assay. Each sample compound was diluted into an assay buffer (1×HBSS with 20 mM HEPES, 2.5 mM Probenecid, and 0.4% Free Fatty Acid BSA) at an appropriate concentration to obtain final specified concentrations.
(§4) Using the EC80 values that were determined real-time, stimulated all pre-incubated sample compounds and reference antagonists (if applicable) were compared with the EC80 values of reference agonist. These were read for 180 seconds using the FLIPR^TETRA (This assay added reference agonist to respective wells-then fluorescences measurements were collected to calculate IC50 values). All plates were subjected to appropriate baseline corrections. Once baseline corrections were processed, maximum fluorescence values were exported and data manipulated to calculate percentage activation, percentage inhibition and Z′.

[1] = Microsomal intrinsic clearance; settings: mouse, microsomes, mouse microsomes, test conc. 1 μM
[2] = Blood concentrations and pharmacokinetics after 1 mg/kg i.v. in mice; type: in vivo, mouse
Procedure: 1 mg/kg of the compound was injected by IV and blood was withdrawn at the times in table 1. The amount of starting compound was quantified by a standard curve using MS/MS determinations.

[3] = In vitro plasma protein binding; type: in vitro ADME, mouse; settings: mouse plasma, test concentration 5 nM
S1P5 receptor = S1P5 receptor (Homo sapiens (Human), UniProt Q9H228); assay: Antagonist assay (FLIPR TETRA, inhibition of reference agonist EC80) on S1P5; type: cell-based; settings: tested as the citrate salt
Sequence of S1P5 receptor (Q9H228 whole entry): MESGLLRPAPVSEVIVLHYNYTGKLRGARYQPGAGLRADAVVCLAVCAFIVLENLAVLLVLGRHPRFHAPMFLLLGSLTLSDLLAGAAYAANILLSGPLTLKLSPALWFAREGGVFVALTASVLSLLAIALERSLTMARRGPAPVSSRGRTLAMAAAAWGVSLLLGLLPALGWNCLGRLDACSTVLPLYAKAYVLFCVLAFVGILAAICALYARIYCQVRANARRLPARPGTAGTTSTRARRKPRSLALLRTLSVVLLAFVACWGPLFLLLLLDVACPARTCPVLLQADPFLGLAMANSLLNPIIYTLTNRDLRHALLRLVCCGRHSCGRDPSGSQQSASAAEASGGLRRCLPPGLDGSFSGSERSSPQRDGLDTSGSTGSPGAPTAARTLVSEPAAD
Procedure: as §1, §2, §3, §4

## Cc1nn(C)c2nc(NNC(=O)Nc3cc(Cl)nc(Cl)c3)cc(C(C)C)c12 [JTE013, N-(1H-4-isopropyl-1,3-dimethylpyrazolo[3,4-b]pyridine-6-yl)amino-N′-(2,6-dichloropyridine-4-yl) urea]
S1P2 receptor
  IC50: 11 nM
[1]; NADPH-dependent Clint (microsomal intrinsic clearance)
  microsomal CLint at 1 μM: 770 µL/min/mg
[1]; NADPH-dependent T1/2 (half-life)
  half-life at 1 μM: 0.05 h
[1]; NADPH-free Clint (microsomal intrinsic clearance)
  microsomal CLint at 1 μM: 22 µL/min/mg
[1]; NADPH-free T1/2 (half-life)
  half-life at 1 μM: 1.75 h
[2]; mouse blood, individual mice
  AUC0-inf: 88.2 ng·h/mL and 122 ng·h/mL
  AUC0-inf Extrapolated: 6.50% and 2.89% and 12.1%
  AUC0-tlast: 85.6 ng·h/mL and 108 ng·h/mL
  AUMC0-inf: 153 h^2*ng/mL and 71.2 h^2*ng/mL and 652 h^2*ng/mL
  AUMC0-inf Extrapolated: 68.6% and 39.9% and 88.0%
  AUMC0-tlast: 48.1 h^2*ng/mL and 42.8 h^2*ng/mL and 78.0 h^2*ng/mL
  C0: 397 ng/mL and 536 ng/mL
  CL: 188 mL/min/kg and 136 mL/min/kg
  MRT0-inf: 1.40 h and 0.807 h and 5.33 h
  MRT0-tlast: 0.500 h and 0.725 h
  Terminal half-life: 6.11 h and 3.56 h and 18.7 h
  Vss: 12.8 L/kg and 9.16 L/kg and 43.6 L/kg
[2]; mouse blood, mean
  AUC0-inf Extrapolated, Mean S.D.: 7.15 ± 4.61%
  AUMC0-inf Extrapolated, Mean S.D.: 65.5 ± 24.2%
  AUMC0-inf, Mean S.D.: 292 ± 314 h^2*ng/mL
  AUMC0-tlast, Mean S.D.: 56.3 ± 19.0 h^2*ng/mL
  C0, Mean S.D.: 462 ± 70.1 ng/mL
[2]; mouse, 5 min, individual mice, LLOQ = 1 ng/mL
  Blood Concentrations: 231 ng/mL and 302 ng/mL
[2]; mouse, 0.25 h, individual mice, LLOQ = 1 ng/mL
  Blood Concentrations: 78.3 ng/mL and 95.8 ng/mL
[2]; mouse, 0.5 h, individual mice, LLOQ = 1 ng/mL
  Blood Concentrations: 33.8 ng/mL and 40.4 ng/mL
[2]; mouse, 1 h, individual mice, LLOQ = 1 ng/mL
  Blood Concentrations: 14.4 ng/mL and 13.4 ng/mL
[2]; mouse, 2 h, individual mice, LLOQ = 1 ng/mL
  Blood Concentrations: 3.16 ng/mL and 3.12 ng/mL
[2]; mouse, 4 h, individual mice, LLOQ = 1 ng/mL
  Blood Concentrations: 0.732^c ng/mL and 0.771^c ng/mL
[2]; mouse, 6 h, individual mice, LLOQ = 1 ng/mL
  Blood Concentrations: 0.496^c ng/mL and 0.643^c ng/mL
[2]; mouse, 12 h, individual mice, LLOQ = 1 ng/mL
  Blood Concentrations: BLQ
[2]; mouse, comparison between compounds
  pharmacokinetics / blood levels following intravenous injection in mice (in words): better than compound 2
[2]; mouse, in vivo, iv, 1 mg/kg, mouse blood, individual mice, read-out: AUC0-inf
  AUC0-inf: 109 ng·h/mL
[2]; mouse, in vivo, iv, 1 mg/kg, mouse blood, individual mice, read-out: AUC0-tlast
  AUC(0-t): 102 ng·h/mL
[2]; mouse, in vivo, iv, 1 mg/kg, mouse blood, individual mice, read-out: C0
  C0: 453 ng/mL
[2]; mouse, in vivo, iv, 1 mg/kg, mouse blood, individual mice, read-out: CL (converted)
  clearance: 153 mL/min/kg
[2]; mouse, in vivo, iv, 1 mg/kg, mouse blood, individual mice, read-out: MRT0-tlast
  MRT last: 0.471 h
[2]; mouse, in vivo, iv, 1 mg/kg, mouse blood, mean, read-out: AUC0-inf, Mean S.D.
  AUC0-inf: 107 ± 17.2 ng·h/mL
[2]; mouse, in vivo, iv, 1 mg/kg, mouse blood, mean, read-out: AUC0-tlast, Mean S.D.
  AUC(0-t): 98.4 ± 11.4 ng·h/mL
[2]; mouse, in vivo, iv, 1 mg/kg, mouse blood, mean, read-out: CL, Mean S.D. (converted)
  clearance: 159 mL/min/kg
[2]; mouse, in vivo, iv, 1 mg/kg, mouse blood, mean, read-out: MRT0-inf, Mean S.D.
  MRT inf: 2.51 ± 2.46 h
[2]; mouse, in vivo, iv, 1 mg/kg, mouse blood, mean, read-out: MRT0-tlast, Mean S.D.
  MRT last: 0.565 ± 0.139 h
[2]; mouse, in vivo, iv, 1 mg/kg, mouse blood, mean, read-out: Terminal half-life, Mean S.D. (converted)
  half-life: 9.45 ± 8.09 h
[2]; mouse, in vivo, iv, 1 mg/kg, mouse blood, mean, read-out: Vss, Mean S.D.
  Vd: 21.9 ± 18.9 L/kg
[2]; mouse, in vivo, iv, 1 mg/kg, mouse, 5 min, individual mice, LLOQ = 1 ng/mL, read-out: Blood Concentrations
  concentration at 5 min: 282 ng/mL
[2]; mouse, in vivo, iv, 1 mg/kg, mouse, 5 min, mean of 3 mice, read-out: Blood Concentrations, Mean S.D.
  concentration at 5 min: 272 ± 36.6 ng/mL
[2]; mouse, in vivo, iv, 1 mg/kg, mouse, 0.25 h, individual mice, LLOQ = 1 ng/mL, read-out: Blood Concentrations
  concentration at 0.25 h: 109 ng/mL
[2]; mouse, in vivo, iv, 1 mg/kg, mouse, 0.25 h, mean of 3 mice, read-out: Blood Concentrations, Mean S.D.
  concentration at 0.25 h: 94.4 ± 15.4 ng/mL
[2]; mouse, in vivo, iv, 1 mg/kg, mouse, 0.5 h, individual mice, LLOQ = 1 ng/mL, read-out: Blood Concentrations
  concentration at 0.5 h: 44.4 ng/mL
[2]; mouse, in vivo, iv, 1 mg/kg, mouse, 0.5 h, mean of 3 mice, read-out: Blood Concentrations, Mean S.D.
  concentration at 0.5 h: 39.5 ± 5.35 ng/mL
[2]; mouse, in vivo, iv, 1 mg/kg, mouse, 1 h, individual mice, LLOQ = 1 ng/mL, read-out: Blood Concentrations
  concentration at 1 h: 11.8 ng/mL
[2]; mouse, in vivo, iv, 1 mg/kg, mouse, 1 h, mean of 3 mice, read-out: Blood Concentrations, Mean S.D.
  concentration at 1 h: 13.2 ± 1.31 ng/mL
[2]; mouse, in vivo, iv, 1 mg/kg, mouse, 2 h, individual mice, LLOQ = 1 ng/mL, read-out: Blood Concentrations
  concentration at 2 h: 2.72 ng/mL
[2]; mouse, in vivo, iv, 1 mg/kg, mouse, 2 h, mean of 3 mice, read-out: Blood Concentrations, Mean S.D.
  concentration at 2 h: 3 ± 0.243 ng/mL
[2]; mouse, in vivo, iv, 1 mg/kg, mouse, 4 h, individual mice, LLOQ = 1 ng/mL, read-out: Blood Concentrations
  concentration at 4 h: 1.01 ng/mL
[2]; mouse, in vivo, iv, 1 mg/kg, mouse, 4 h, mean (n = 2 for Cmpd-1), read-out: Blood Concentrations, Mean S.D.
  concentration at 4 h: 0.838 ± 0.151 ng/mL
[2]; mouse, in vivo, iv, 1 mg/kg, mouse, 6 h, individual mice, LLOQ = 1 ng/mL, read-out: Blood Concentrations
  concentration at 6 h: 0.805 ng/mL
[2]; mouse, in vivo, iv, 1 mg/kg, mouse, 6 h, mean (n = 2 for Cmpd-1), read-out: Blood Concentrations, Mean S.D.
  concentration at 6 h: 0.648 ± 0.155 ng/mL
[2]; mouse, in vivo, iv, 1 mg/kg, mouse, 12 h, individual mice, LLOQ = 1 ng/mL, read-out: Blood Concentrations
  concentration at 12 h: 0.547 ng/mL
[3]
  mean fraction bound (%): 99.7%
S1P5 receptor
  IC50: 1.3 nM
